Assay [1] has as its system Pyricularia oryzae. The format is in vivo. Particulars: granules applied to water surface at 1.5 kg/10 ares; rice Koshihikari; inoculated 30 days after application; lesions examined after 1 week.
The subject of assay [2] is Pyricularia oryzae. The format is in vivo. Particulars: wettable powder diluted to 200 ppm sprayed on rice pots (Koshihikari, 2-leaf stage); spore spray-inoculation; examined after 7 days.

Read-outs that look alike come from different tables or passages of the source.

In the case of `CC(C)C(CNC(=O)c1cc2ccccc2o1)NC(=O)OCC(F)(F)F` (stereo not shown) [compound 28], the “Effect (preventive value)” value in assay [1] and in assay [2] was “A (80% or more)” each time.
Regarding `Cc1ccc(C(=O)NCC(NC(=O)OCCI)C(C)C)cc1` (stereo not shown) [compound 5], the “Effect (preventive value)” value in assay [2] is listed as “A (80% or more)”.
Still for that read-out and setting: the result for `CC(C)C(CNC(=O)c1nc2ccccc2s1)NC(=O)OCC(F)(F)F` (stereo not shown) [compound 38] reads “A (80% or more)”; that for `CCC(CC)C(CNC(=O)c1ccc(C)cc1)NC(=O)OCC(F)(F)F` (stereo not shown) [compound 39], “A (80% or more)”.
`Cc1ccc(C(=O)NCC(NC(=O)Oc2ccc3ccccc3c2)C(C)C)cc1` (stereo not shown) [Formula (7), reference compound]: the “Effect (preventive value)” value in assay [1] and in assay [2] was “C (less than 50%)” in each case.
As to `CCC(C)C(CNC(=O)c1cc2ccccc2o1)NC(=O)OCC(F)(F)F` (stereo not shown) [compound 32], the “Effect (preventive value)” value in assay [2] is listed as “A (80% or more)”.
Regarding `Cc1ccc(C(=O)NCC(NC(=O)OCC(F)(F)F)C(C)(C)C)cc1` (stereo not shown) [compound 24], the “Effect (preventive value)” value in assay [1] and in assay [2] was “A (80% or more)” in each case.
For the molecule `Cc1ccc(C(=O)NC(CNC(=O)OC2CCCCC2Cl)C(C)C)cc1` (stereo not shown) [Compound No. 17, N-(2-chlorocyclohexyloxycarbonyl)-N′-(4-methylbenzoyl)-3-methyl-1,2-butanediamine], the “Effect (preventive value)” value in assay [2] is listed as “A (80% or more)”.
On to `Cc1ccc(C(=O)NCC(NC(=O)OCCF)C(C)C)cc1` (stereo not shown) [compound 2], for which the “Effect (preventive value)” value in assay [1] and in assay [2] was “A (80% or more)” each time.
Consider `CC(C)C(CNC(=O)c1cc2ccccc2s1)NC(=O)OCC(F)(F)F` (stereo not shown) [compound 34], for which the “Effect (preventive value)” value in assay [2] is “A (80% or more)”.
Same read-out and setting: in the case of `Cc1ccc(C(=O)NCC(NC(=O)OC(CF)CF)C(C)C)cc1` (stereo not shown) [compound 9] it was “A (80% or more)”; in that of `Cc1ccc(C(=O)NCC(NC(=O)OCC(F)(F)F)C2CCCC2)cc1` (stereo not shown) [compound 36], “A (80% or more)”.
The same measure, in the same setting: in the case of `Cc1ccc(C(=O)NCC(NC(=O)OCCCCl)C(C)C)cc1` (stereo not shown) [compound 10] it was “A (80% or more)”; in that of `Cc1ccc(C(=O)NCC(NC(=O)OC2CCCCC2F)C(C)C)cc1` (stereo not shown) [compound 16], “A (80% or more)”.
As to “N-(chloromethyloxycarbonyl)-N′-(4-methylbenzoyl)-3-methyl-1,2-butanediamine [Compound No. 1]”, in assay [1], the “Effect (preventive value)” value is recorded as “A (80% or more)”.
For `CCC(C)C(CNC(=O)c1nc2ccccc2s1)NC(=O)OCC(F)(F)F` (stereo not shown) [compound 33], the “Effect (preventive value)” value in assay [2] is recorded as “A (80% or more)”.
Still for that read-out and setting: in the case of `Cc1ccc(C(=O)NCC(NC(=O)OCC(F)(F)C(F)(F)C(F)(F)F)C(C)C)cc1` (stereo not shown) [compound 13] it was “A (80% or more)”.
For the molecule `CCC(C)C(CNC(=O)c1ccc(C)cc1)NC(=O)OCC(F)(F)F` (stereo not shown) [compound 25], the “Effect (preventive value)” value in assay [1] and in assay [2] was “A (80% or more)” each time.
As for `Cc1ccc(C(=O)NC(CNC(=O)OC(C(F)(F)F)C(F)(F)F)C(C)C)cc1` (stereo not shown) [Compound No. 8, N-(1,1,1,3,3,3-hexafluoro-2-propyloxycarbonyl)-N′-(4-methylbenzoyl)-3-methyl-1,2-butanediamine], in assay [2], the “Effect (preventive value)” value is “A (80% or more)”.
Still for that read-out and setting: the result for “N-(2,2,2-trichloroethyloxycarbonyl)-N′-(4-methylbenzoyl)-3-methyl-1,2-butanediamine [Compound No. 7]” reads “A (80% or more)”; that for `Cc1ccc(C(=O)NCC(NC(=O)OCCC(F)(F)C(F)(F)C(F)(F)C(F)(F)F)C(C)C)cc1` (stereo not shown) [compound 14], “B (50% or more and less than 80%)”; that for `CC(C)C(CNC(=O)c1nc2ccc(F)cc2s1)NC(=O)OCC(F)(F)F` (stereo not shown) [compound 37], “A (80% or more)”.
On to `C=C(Cl)COC(=O)NC(CNC(=O)c1ccc(C)cc1)C(C)C` (stereo not shown) [compound 15], for which the “Effect (preventive value)” value in assay [1] and in assay [2] was “A (80% or more)” each time.
In the case of `Cc1ccc(C(=O)NCC(NC(=O)OC(C)C(F)(F)F)C(C)C)cc1` (stereo not shown) [compound 30], the “Effect (preventive value)” value in assay [1] and in assay [2] was “A (80% or more)” each time.
Take `Cc1ccc(C(=O)NCC(NC(=O)OCCBr)C(C)C)cc1` (stereo not shown) [compound 4]: the “Effect (preventive value)” value in assay [2] is “A (80% or more)”.
Consider `Cc1ccc(C(=O)NCC(NC(=O)OCCCl)C(C)C)cc1` (stereo not shown) [compound 3], for which the “Effect (preventive value)” value in assay [2] is recorded as “A (80% or more)”.
Consider `CSCC(C)OC(=O)NC(CNC(=O)c1ccc(C)cc1)C(C)C` (stereo not shown) [Formula (8), reference compound], for which the “Effect (preventive value)” value in assay [1] and in assay [2] was “C (less than 50%)” throughout.
In the case of “N-(2,2,2-trifluoroethyloxycarbonyl)-N′-(4-methylbenzoyl)-3-methyl-1,2-butanediamine [Compound No. 6]”, the “Effect (preventive value)” value in assay [1] and in assay [2] was “A (80% or more)” in each case.
`CC(C)(C)C(CNC(=O)c1cc2ccccc2o1)NC(=O)OCC(F)(F)F` (stereo not shown) [compound 31]: the “Effect (preventive value)” value in assay [1] and in assay [2] was “A (80% or more)” throughout.
As for `Cc1ccc(C(=O)NCC(NC(=O)OC(CBr)CBr)C(C)C)cc1` (stereo not shown) [compound 11], in assay [2], the “Effect (preventive value)” value was “B (50% or more and less than 80%)”.

The values are drawn from patent US20070049635A1 (priority 2003, published 2007).
